We go through two molecules from patent publication US20200405752A1, “ANTITUMOR AGENT, ANTITUMOR EFFECT ENHANCER, AND ANTITUMOR KIT” (FUJIFILM Corporation, priority 2018, published 2020).

SMILES strings stand for the structures. pIC50: −log10 of the molar value.

For the assay, the system named is human breast cancer cell line HCC1954 (spheroid culture). As to the kind of experiment: Cell viability (CellTiter Glo) of HCC1954 in spheroid culture in combination with cisplatin. The conditions noted are these: for CI / pIC50: HCC1954 spheroid culture; for CI: combination with cisplatin; for viability at 0.001 µM / viability at 0.003 µM / viability at 0.01 µM / viability at 0.03 µM / viability at 0.1 µM / viability at 0.3 µM / viability at 1 µM / viability at 3 µM / viability at 10 µM / pIC50: Homo sapiens; for viability at 0.001 µM / viability at 0.003 µM / viability at 0.01 µM / viability at 0.03 µM / viability at 0.1 µM / viability at 0.3 µM / viability at 1 µM / viability at 3 µM / viability at 10 µM: 72 h, HCC1954 spheroid, with cisplatin 10 μmol/L, 3 days; for viability at 0.001 µM: test substance 1.0 nM; for viability at 0.003 µM: test substance 3.0 nM; for viability at 0.01 µM: test substance 10.0 nM; for viability at 0.03 µM: test substance 30.0 nM; for viability at 0.1 µM: test substance 100.0 nM; for viability at 0.3 µM: test substance 300.0 nM; for viability at 1 µM: test substance 1000.0 nM; for viability at 3 µM: test substance 3000.0 nM; for viability at 10 µM: test substance 10000.0 nM; for pIC50: in combination with cisplatin (10 μmol/L). In kind it is cell-based. The source says: On the combinational effect of the embodiment of the invention, the results of evaluation using a combination index (CI) which is a quantitative index of the combinational effect are shown. The CI can be calculated by the following equation according to Cancer Research, 2010, Vol. 70, pp. 440 to 446.
That is, in a case where the drugs to be used in combination are drug 1 and drug 2, the CI at a certain drug concentration is
CI={(cell viability in case of using drug 1 and drug 2 in combination)/100}/{[(cell viability in case of using drug 1)/100]×[(cell viability in case of using drug 2)/100]}
Evaluation of Antitumor Activity Against Breast Cancer-Derived Cell Line HCC1954 by Combined Use of Cisplatin in Spheroid Culture
Gemcitabine, cisplatin, and methanesulfonate of Compound A were used as test substances.
Gemcitabine hydrochloride (manufactured by Plantex Co., Ltd.) dissolved in dimethyl sulfoxide (DMSO) was used as gemcitabine. Cisplatin (Cat. #039-20091, manufactured by Wako Pure Chemical Industries, Ltd.) dissolved in DMSO was used as cisplatin.
The human breast cancer cell line HCC1954 cells were subcultured in RPMI-1640 medium supplemented with 10% serum (Cat. #10437-028, manufactured by Thermo Fisher Scientific Inc.). During this test, all cell cultures were carried out in a CO2 incubator (set to 37° C. and 5% CO2, saturated with water vapor). The culture was diluted with 10% serum-supplemented medium to a cell density of 5000 cells/well/100 μL, and seeded on an Ultra-Low Attachment 96-well plate (Cat. #7007, manufactured by Corning Incorporated). The cells were cultured for 4 days to form spheroids.
The methanesulfonate of Compound A and gemcitabine were dissolved in DMSO to prepare 10 mmol/L DMSO solutions thereof. The thus-prepared DMSO solutions were diluted sequentially with DMSO to prepare DMSO solutions having a final treatment concentration of 1000-fold dilution. Cisplatin was dissolved in DMSO to prepare a 100 mmol/L DMSO solution. The thus-prepared DMSO solution of cisplatin was diluted with DMSO to prepare a DMSO solution having a final treatment concentration of 5000-fold dilution. Further, the DMSO solution of cisplatin was diluted with 10% serum-supplemented medium to prepare a cisplatin-containing medium having a final treatment concentration of 10-fold dilution. The DMSO diluted solutions of Compound A and gemcitabine were diluted with the cisplatin-containing medium to prepare treatment liquids having a final treatment concentration of 10-fold dilution. Compound A and gemcitabine were used with a maximum concentration of 10 μmol/L at a common ratio of 1/3 and 9 concentrations in combination with cisplatin (10 μmol/L, 5 μmol/L).
10 μL of Compound A or gemcitabine diluted with the cisplatin-containing medium was added to each well. In addition, a group in which only a solvent containing no drug was added to wells in which cells were seeded (positive control), and a group in which only a solvent containing no drug was added to wells containing only a medium (negative control) were provided. All groups were set to n=3 well.
The cells were cultured for 3 days after the addition of the drug, and the cell viability was evaluated using a CellTiter Glo (registered trademark) Reagent (Cat. #G7570, manufactured by Promega Corporation) with the intracellular ATP level as an index. The concentration that inhibits cell viability by 50% (IC50 value) was calculated using XLFit software Ver.3 (registered trademark, manufactured by CTC Laboratory Systems Corporation).
The cell viability of each well was determined with the luminescence signal level of the negative control being 0% cell viability and the luminescence signal level of the positive control being 100% cell viability. The average value and standard deviation of the cell viability of each treatment group were calculated to prepare Table 11.

With `Nc1ccn([C@@H]2S[C@H](CO)[C@@H](O)[C@@H]2F)c(=O)n1` [Compound A, 1-(2-deoxy-2-fluoro-4-thio-β-D-arabinofuranosyl)cytosine], the CI was determined as 0.03, the viability at 0.001 µM worked out at 92%, the viability at 0.003 µM came to 94% and the viability at 0.01 µM is 75%. The viability at 0.03 µM was 65%, the viability at 0.1 µM is 38%, the viability at 0.3 µM was 15% and the viability at 1 µM was 2%. Also, the viability at 3 µM came out at 2%, the viability at 10 µM turned out to be 2% and the pIC50 is 7.31.

Turning to `Nc1ccn([C@@H]2O[C@H](CO)[C@@H](O)C2(F)F)c(=O)n1` [Gemcitabine], the CI stood at 0.60, the viability at 0.001 µM came to 96%, the viability at 0.003 µM came out at 100% and the viability at 0.01 µM amounted to 101%. Further, the viability at 0.03 µM came out at 97%, the viability at 0.1 µM was 88%, the viability at 0.3 µM was found to be 73% and the viability at 1 µM amounted to 60%. Besides, the viability at 3 µM worked out at 52%, the viability at 10 µM is 50% and the pIC50 is at most 5.00.
